# Where a name gives a salt, the structure may show the parent alone. Read-outs that look alike come from different tables or passages of the source.
# Assays:
# [1] = biological target: T1, human JAK1 (a.a. 837-1142) (Homo sapiens, UniProt P23458); experiment: In vitro JAK kinase assay (HTRF, phosphorylation of biotinylated peptide), JAK1; assay type: biochemical
# T1 construct: The catalytic domains of human JAK1 (a.a. 837-1142); His tag (N); made in house; host or cells: insect cells (baculovirus)
# T1 sequence (P23458 849-1154): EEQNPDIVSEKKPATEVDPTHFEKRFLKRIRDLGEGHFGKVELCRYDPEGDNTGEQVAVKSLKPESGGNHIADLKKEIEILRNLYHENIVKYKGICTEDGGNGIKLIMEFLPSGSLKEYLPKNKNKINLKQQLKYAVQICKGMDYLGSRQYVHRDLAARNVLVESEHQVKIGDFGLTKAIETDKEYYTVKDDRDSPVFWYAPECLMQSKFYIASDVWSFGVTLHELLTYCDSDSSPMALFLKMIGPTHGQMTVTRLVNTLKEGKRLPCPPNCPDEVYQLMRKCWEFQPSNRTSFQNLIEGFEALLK
# Experimental: (§1) Compounds herein were tested for inhibitory activity of JAK targets according to the following in vitro assay described in Park et al., Analytical Biochemistry 1999, 269, 94-104. The catalytic domains of human JAK1 (a.a. 837-1142), Jak2 (a.a. 828-1132) and Jak3 (a.a. 781-1124) with an N-terminal His tag were expressed using baculovirus in insect cells and purified. The catalytic activity of JAK1, JAK2 or JAK3 was assayed by measuring the phosphorylation of a biotinylated peptide. The phosphorylated peptide was detected by homogenous time resolved fluorescence (HTRF). IC50s of compounds were measured for each kinase in the 40 microL reactions that contain the enzyme, ATP and 500 nM peptide in 50 mM Tris (pH 7.8) buffer with 100 mM NaCl, 5 mM DTT, and 0.1 mg/mL (0.01%) BSA. The ATP concentration in the reactions was 90 μM for Jak1, 30 μM for Jak2 and 3 μM for Jak3 for Km conditions. For the 1 mM IC50 measurements, ATP concentration in the reactions was 1 mM. Reactions were carried out at room temperature for 1 hr and then stopped with 20 μL 45 mM EDTA, 300 nM SA-APC, 6 nM Eu-Py20 in assay buffer (Perkin Elmer, Boston, Mass.). Binding to the Europium labeled antibody took place for 40 minutes and HTRF signal was measured on a Fusion plate reader (Perkin Elmer, Boston, Mass.). See Tables 1, 2, 3, and 4 for data related to compounds of the invention.
# Jak2 (a.a. 828-1132) = biological target: T2, Jak2 (a.a. 828-1132) (Homo sapiens, UniProt O60674); experiment: In vitro JAK kinase assay (HTRF, phosphorylation of biotinylated peptide), JAK2; assay type: biochemical
# T2 construct: Jak2 (a.a. 828-1132); His tag (N); made in house; host or cells: insect cells (baculovirus)
# T2 sequence (O60674 828-1132): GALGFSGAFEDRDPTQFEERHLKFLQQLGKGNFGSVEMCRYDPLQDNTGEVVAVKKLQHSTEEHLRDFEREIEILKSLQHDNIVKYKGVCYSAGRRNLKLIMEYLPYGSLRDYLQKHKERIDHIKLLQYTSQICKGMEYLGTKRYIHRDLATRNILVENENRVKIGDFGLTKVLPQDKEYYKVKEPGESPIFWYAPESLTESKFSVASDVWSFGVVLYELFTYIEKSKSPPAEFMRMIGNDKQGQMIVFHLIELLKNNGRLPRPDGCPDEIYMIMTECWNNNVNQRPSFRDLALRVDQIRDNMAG
# Experimental: as §1
# [2] = 1 mM ATP, Examples 12-91, read-out: JAK1 IC50 (nM) @ 1 mM ATP
# [3] = 1 mM ATP, Examples 12-91, read-out: JAK2 IC50 (nM) @ 1 mM ATP
# [4] = 1 mM ATP, Examples 92-162, read-out: JAK1 IC50 (nM) @ 1 mM ATP
# [5] = 1 mM ATP, Examples 92-162, read-out: JAK2 IC50 (nM) @ 1 mM ATP
SMILES,"IC50 [1, 2]",IC50 (Jak2 (a.a. 828-1132); [3]),further results
"N#CCC(CN1CCN(C(=O)c2ccc(F)cn2)CC1)n1ccc(-c2ncnc3[nH]ccc23)c1 (centres unmarked) [Example 83, 3-(3-(7H-pyrrolo[2,3-d]pyrimidin-4-yl)-1H-pyrrol-1-yl)-4-(4-(5-fluoropicolinoyl)piperazin-1-yl)butanenitrile]",< 10 nM,10 to 50 nM,
"N#CCC(CN1CCN(C(=O)c2cc(F)cc(C#N)c2)CC1)n1ccc(-c2ncnc3[nH]ccc23)c1 (centres unmarked) [Example 86, 3-(4-(2-(3-(7H-pyrrolo[2,3-d]pyrimidin-4-yl)-1H-pyrrol-1-yl)-3-cyanopropyl)piperazine-1-carbonyl)-5-fluorobenzonitrile trifluoroacetate salt]",10 to 50 nM,> 100 nM,
"N#CCC(CN1CCN(C(=O)c2ncc(C#N)cc2F)CC1)n1cc(-c2ncnc3[nH]ccc23)cn1 (centres unmarked) [Example 17, 6-[(4-{3-cyano-2-[4-(7H-pyrrolo[2,3-d]pyrimidin-4-yl)-1H-pyrazol-1-yl]propyl}piperazin-1-yl)carbonyl]-5-fluoronicotinonitrile]",10 to 50 nM,> 100 nM,
"N#CCC(CN1CCN(C(=O)c2ncc(F)cc2F)CC1)n1ccc(-c2ncnc3[nH]ccc23)c1 (centres unmarked) [Example 80, 3-(3-(7H-pyrrolo[2,3-d]pyrimidin-4-yl)-1H-pyrrol-1-yl)-4-(4-(3,5-difluoropicolinoyl)piperazin-1-yl)butanenitrile]",< 10 nM,10 to 50 nM,
"N#CCC(CN1CCN(C(=O)c2ncc(Cl)cc2F)CC1)n1ccc(-c2ncnc3[nH]ccc23)c1 (centres unmarked) [Example 84, 3-(3-(7H-pyrrolo[2,3-d]pyrimidin-4-yl)-1H-pyrrol-1-yl)-4-(4-(5-chloro-3-fluoropicolinoyl)piperazin-1-yl)butanenitrile]",10 to 50 nM,10 to 50 nM,
"N#CCC(CN1CCN(C(=O)c2ccc(O)c(Cl)c2)CC1)n1cc(-c2ncnc3[nH]ccc23)cn1 (centres unmarked) [Example 54, 3-(4-(7H-pyrrolo[2,3-d]pyrimidin-4-yl)-1H-pyrazol-1-yl)-4-(4-(3-chloro-4-hydroxybenzoyl)piperazin-1-yl)butanenitrile trifluoroacetate salt]",10 to 50 nM,50 to 100 nM,
"CCC(CN1CCN(S(=O)(=O)c2ccc(F)cc2)CC1)n1cc(-c2ncnc3[nH]ccc23)cn1 (centres unmarked) [Example 137, 4-(1-(1-(4-(4-fluorophenylsulfonyl)piperazin-1-yl)butan-2-yl)-1H-pyrazol-4-yl)-7H-pyrrolo[2,3-d]pyrimidine]",,,"IC50 [1, 4]: < 20 nM; IC50 (Jak2 (a.a. 828-1132); [5]): 50 to 100 nM"
"N#CCC(CN1CCN(C(=O)c2ccc(C#N)cc2F)CC1C(F)F)n1cc(-c2ncnc3[nH]ccc23)cn1 (single isomer, unassigned) [Example 159—peak 2, 4-{[4-{3-cyano-2-[4-(7H-pyrrolo[2,3-d]pyrimidin-4-yl)-1H-pyrazol-1-yl]propyl}-3-(difluoromethyl)piperazin-1-yl]carbonyl}-3-fluorobenzonitrile]",,,"IC50 [1, 4]: 50 to 100 nM; IC50 (Jak2 (a.a. 828-1132); [5]): 50 to 100 nM"
"N#CCC(CN1CCN(C(=O)c2ccc(Cl)cc2F)CC1)n1cc(-c2ncnc3[nH]ccc23)cn1 (centres unmarked) [Example 26, 3-(4-(7H-pyrrolo[2,3-d]pyrimidin-4-yl)-1H-pyrazol-1-yl)-4-(4-(4-chloro-2-fluorobenzoyl)piperazin-1-yl)butanenitrile]",< 10 nM,< 10 nM,
"Cc1ccc(C(=O)N2CCN(CC(CC#N)n3cc(-c4ncnc5[nH]ccc45)cn3)CC2)c(F)c1 (centres unmarked) [Example 28, 3-(4-(7H-pyrrolo[2,3-d]pyrimidin-4-yl)-1H-pyrazol-1-yl)-4-(4-(2-fluoro-4-methylbenzoyl)piperazin-1-yl)butanenitrile]",< 10 nM,< 10 nM,
"C[C@H]1CN(C(=O)c2ccc(C#N)cc2F)CCN1CC(CC#N)n1cc(-c2ncnc3[nH]ccc23)cn1 (single isomer, unassigned) [25, S-1]",> 100 nM,> 100 nM,
"N#CCC(CN1CCN(C(=O)c2c(F)cc(C#N)cc2F)CC1)n1ccc(-c2ncnc3[nH]ccc23)c1 (centres unmarked) [Example 79, 4-(4-(2-(3-(7H-pyrrolo[2,3-d]pyrimidin-4-yl)-1H-pyrrol-1-yl)-3-cyanopropyl)piperazine-1-carbonyl)-3,5-difluorobenzonitrile trifluoroacetate salt]",< 10 nM,50 to 100 nM,
"CCC(CN1CCN(C(=O)c2ccccc2O)CC1)n1cc(-c2ncnc3[nH]ccc23)cn1 (centres unmarked) [Example 117, 2-[(4-{2-[4-(7H-pyrrolo[2,3-d]pyrimidin-4-yl)-1H-pyrazol-1-yl]butyl}piperazin-1-yl)carbonyl]phenol]",,,"IC50 [1, 4]: 20 to 50 nM; IC50 (Jak2 (a.a. 828-1132); [5]): 50 to 100 nM"
"N#CCC(CN1CCN(C(=O)c2ncc(C#N)cc2F)CC1)n1ccc(-c2ncnc3[nH]ccc23)c1 (centres unmarked) [Example 87, 6-(4-(2-(3-(7H-pyrrolo[2,3-d]pyrimidin-4-yl)-1H-pyrrol-1-yl)-3-cyanopropyl)piperazine-1-carbonyl)-5-fluoronicotinonitrile]",10 to 50 nM,> 100 nM,
"N#CCC(CN1CCN(C(=O)c2cc(F)cc(F)c2)CC1)n1cc(-c2ncnc3[nH]ccc23)cn1 (centres unmarked) [Example 3, 4-[4-(3,5-difluorobenzoyl)piperazin-1-yl]-3-[4-(7H-pyrrolo[2,3-d]pyrimidin-4-yl)-1H-pyrazol-1-yl]butanenitrile]",,,"IC50 ([1]; 1 mM ATP, Examples 1-11, read-out: IC50 (nM) @ 1 mM ATP JAK1): 10 to 20 nM; IC50 ([1]; Km ATP (90 μM for Jak1), Examples 1-11, read-out: IC50 (nM) @ Km ATP JAK1): < 10 nM; IC50 (Jak2 (a.a. 828-1132); 1 mM ATP, Examples 1-11, read-out: IC50 (nM) @ 1 mM ATP JAK2): < 10 nM; IC50 (Jak2 (a.a. 828-1132); Km ATP (30 μM for Jak2), Examples 1-11, read-out: IC50 (nM) @ Km ATP JAK2): < 10 nM"
"N#CCC(CN1CCN(S(=O)(=O)c2cc(F)cc(F)c2)CC1)n1cc(-c2ncnc3[nH]ccc23)cn1 (centres unmarked) [Example 61, 3-(4-(7H-pyrrolo[2,3-d]pyrimidin-4-yl)-1H-pyrazol-1-yl)-4-(4-(3,5-difluorophenylsulfonyl)piperazin-1-yl)butanenitrile trifluoroacetate salt]",< 10 nM,< 10 nM,
"N#CCC(CN1CCCN(C(=O)c2ccc(N)cc2F)CC1)n1cc(-c2ncnc3[nH]ccc23)cn1 (centres unmarked) [Example 104, 4-[4-(4-amino-2-fluorobenzoyl)-1,4-diazepan-1-yl]-3-[4-(7H-pyrrolo[2,3-d]pyrimidin-4-yl)-1H-pyrazol-1-yl]butanenitrile]",,,"IC50 [1, 4]: 20 to 50 nM; IC50 (Jak2 (a.a. 828-1132); [5]): > 100 nM"
"CCC(CN1CCN(C(=O)c2cc(F)cc(F)c2)CC1)n1cc(-c2ncnc3[nH]ccc23)cn1 (centres unmarked) [Example 121, (4-(2-(4-(7H-pyrrolo[2,3-d]pyrimidin-4-yl)-1H-pyrazol-1-yl)butyl)piperazin-1-yl)(3,5-difluorophenyl)methanone]",,,"IC50 [1, 4]: 20 to 50 nM; IC50 (Jak2 (a.a. 828-1132); [5]): > 100 nM"
"N#CCC(CN1CCN(C(=O)c2ccc(F)c(F)c2F)CC1)n1cc(-c2ncnc3[nH]ccc23)cn1 (centres unmarked) [Example 48, 3-(4-(7H-pyrrolo[2,3-d]pyrimidin-4-yl)-1H-pyrazol-1-yl)-4-(4-(2,3,4-trifluorobenzoyl)piperazin-1-yl)butanenitrile phosphate salt]",< 10 nM,10 to 50 nM,
"N#CCC(CN1CCN(C(=O)c2cccc(F)c2F)CC1)n1cc(-c2ncnc3[nH]ccc23)cn1 (centres unmarked) [Example 33, 3-(4-(7H-pyrrolo[2,3-d]pyrimidin-4-yl)-1H-pyrazol-1-yl)-4-(4-(2,3-difluorobenzoyl)piperazin-1-yl)butanenitrile]",< 10 nM,< 10 nM,
"N#CCC(CN1CCN(S(=O)(=O)c2cccs2)CC1)n1cc(-c2ncnc3[nH]ccc23)cn1 (centres unmarked) [Example 67, 3-(4-(7H-pyrrolo[2,3-d]pyrimidin-4-yl)-1H-pyrazol-1-yl)-4-(4-(thiophen-2-ylsulfonyl)piperazin-1-yl)butanenitrile]",< 10 nM,< 10 nM,
